Source: patent US5965568A, “Composition for inhibiting production or secretion of amyloid β protein to treat Down's syndrome” (priority 1995, dated 1999)

What was measured:
[1] = test system: Aβ production or secretion in IMR-32 cells; assay: Inhibitory activity against Aβ production or secretion in human neuroblastoma IMR-32 cells (EIA); type: cell-based; conditions: 24 hours, vs control group, mean of 4 wells, read-out: inhibition of Aβ production or secretion, based on the control group
Description: (§1) Studies on Aβ production or secretion in human-derived neurons and gliocytes are very interesting because of the relation to Alzheimer's dementia. However, human primary culture neurons and gliocytes cannot generally be used for experimental materials. IMR-32 cells were therefore used. The IMR-32 cells are human-derived neuroblastoma cells, and produce and secrete Aβ in the culture supernatant (Shinkei Kagaku (Neurochemistry) 33, 232 (1994)). In addition, Dr. Hironobu Suzuki et al. (Science, 264, 1336 (1994)) had developed an enzyme immunoassay method that can determine and distinguish between Aβ of 40 amino acids (Aβ (1-40)) and Aβ of 42 amino acids (Aβ (1-42)). This method was used to determine inhibitory activity of the test compound against Aβ production or secretion.
(§2) Human neuroblastoma IMR-32 cells were purchased from American Type Culture Collection (ATCC). Dulbecco's modified Eagle's medium (DMEM) was purchased from Nissui Pharmaceutical Co., Ltd., Japan. Fetal calf serum (hereinaftersometimes abbreviated as FCS) and a mixed solution of penicillin (5000 U/ml) and streptomycin (5 mg/ml) were purchased from Biowhittaker Inc. Phosphate buffered saline (PBS) was purchased from Flow Laboratories. Block Ace was purchased from Dainippon Pharmaceutical Co., Ltd. Bovine serum albumin (BSA) was purchased from Sigma. Flasks for culture and 48-well multi well plates were those manufactured by Falcon and Coster Corporation, respectively. Standard samples of Aβ (1-40) and Aβ (1-42) were purchased from Bachem. The other reagents used were commercially available highest quality goods.
IMR-32 cells were cultured at 37° C. in 10% carbon dioxide/90% air using 10% FCS/DMEM culture solution in a flask (Falcon, 750 ml) until the confluent growth of the cells was obtained. Then, the cells were inoculated in a 48-well multi well plate at a density of 2.5×10^5 cells/well, and cultured for 5 days. The culture solution was sucked off, and then DMEM/0.5% BSA (0.5 ml for the assay of Aβ (1-40) or 0.25 ml for the assay of Aβ (1-42)) was added. The cells were cultured for 24 hours.
In each case, the primary antibody was BAN-50 antibody that recognizes the N-terminal region of Aβ (1-40). BA-27 is an antibody prepared using Aβ (1-40) as an antigen, and recognizes the C-terminal region of Aβ (1-40). On the other hand, BC-05 antibody is an antibody prepared using Aβ (35-43) as an antigen, and recognizes the C-terminal region of Aβ (1-42) but not Aβ (1-40). Therefore, Aβ (1-40) can be assayed with a combination of BAN-50 antibody with BA-27 antibody, and Aβ (1-42) can be assayed with a combination of BAN-50 antibody with BC-05 antibody. […]

[2] = test system: Aβ (1-42) production and secretion in IMR-32 cells; assay: Inhibitory activity against Aβ (1-42) production or secretion in human neuroblastoma IMR-32 cells (EIA, BAN-50/BC-05); type: cell-based; conditions: not a significant change
Description: as §1
as §2, with “Flasks for culture and 48-well multi well plates were those manufactured by Falcon and Coster Corporation, respectively. Standard samples of Aβ (1-40) and Aβ (1-42) were purchased from Bachem. The other reagents used were commercially available highest quality goods.” left out

[3] = test system: IMR-32 cells; assay: Evaluation of the cytotoxicity, MTT method, IMR-32 cells; type: cell-based, human; conditions: 1×10^-4 (maximum concentration used)
Description: The culture supernatant was sampled, and DMEM culture solution (500 μl) containing 1.2 mM MTT {3-(4,5dimethyl-2-thiazolyl)-2,5-diphenyl-2H-tetrazolium bromide} was added. The reaction was carried out for 1 hour at 37° C., and then an equal amount of 10% sodium dodecyl sulfate solution was added. The mixture was gently stirred overnight to dissolve the resulting formazan, and then subjected to colorimetry (wavelength: 550 nm) with a plate reader.
Four wells were used per dose of the drug. The value in the data was represented as a ratio (%) to the control group. Dunnett's t test was used for the statistical analysis.

[4] = test system: IMR-32 cells; assay: Evaluation of the cytotoxicity, lactate dehydrogenase (LDH) method, IMR-32 cells; type: cell-based, human; conditions: 1×10^-4 (maximum concentration used)
Description: IMR-32 cells were cultured at 37° C. in 10% carbon dioxide/90% air using 10% FCS/DMEM culture solution in a flask (Falcon, 750 ml) until the confluent growth of the cells was obtained. Then, the cells were inoculated in a 48-well multi well plate at a density of 2.5×10^5 cells/well, and cultured for 5 days. […] The cells were cultured for 24 hours. […] The culture supernatant (10 μl) obtained after the assay of Aβ (1-40) was sampled, and the amount of LDH released from the cells was determined with a LDH assay kit (LDH C-II manufactured by Wako Pure Chemical Industries, Ltd.). Four wells were used per dose of the drug. The value in the data was represented as a ratio (%) to the control group. Dunnett's t test was used for the statistical analysis.

[5] = test system: Aβ (1-40) production and secretion in guinea pig primary culture neurons; assay: Inhibitory activity against Aβ (1-40) production and secretion in guinea pig primary culture neurons (EIA); type: cell-based; conditions: 3×10^-5 M, 24 hours
Description: Aβ (1-40) and Aβ (1-42) in the culture supernatant were quantified in the same manner as that described in Experiment 1.

[6] = test system: guinea pig primary culture neurons
Description: Fetal brains were taken out from guinea pigs (SLC-Hartley) that was 28 days pregnant. The cerebral cortex and hippocampus were taken out under a stereoscopic microscope, and, after removing the meninges, were treated in Hank's Balanced Salt Solution (20 ml) containing 0.25% trypsin/0.01% DNase I for 10 minutes. FCS was added to stop the reaction, and the mixture was centrifuged. The cells were dispersed in DMEM culture solution (DMEM/N2 culture solution) containing insulin 5 μg/ml, transferrin 100 μg/ml, progesterone 20 nM, putrescine 100 μM and sodium selenite 30 nM. The dispersion was filtered through double lens paper, and the filtrate was centrifuged to collect the cells. The cells were dispersed in DMEM/N2 culture solution, and inoculated in a 24-well plate at a density of 1×10^-6 cells/well. On the second day from the beginning of the cultivation, the culture solution was replaced with DMEM/N2 culture solution containing cytosine arabinoside (1 μM). After the treatment for 3 days, the culture solution was replaced with DMEM/N2 culture solution. Thereafter, the culture solution was replaced every 2 to 3 days. […] After the culture supernatant was collected, DMEM culture solution (300 μl) containing 1.2 mM MTT was added. After the reaction was carried out at 37° C. for 1 hour, an equal amount of 10% sodium dodecyl sulfate solution was added.

[7] = has been used as a medicament; cited from earlier work
[8] = test system: secreted βAPP; conditions: in vitro various cells; cited from earlier work
[9] = test system: Aβ production or secretion; conditions: in vitro various cells; cited from earlier work

In the case of CCOC(=O)C1=C[C@]2(CC)CCCN3CCc4c(n1c1ccccc41)[C@@H]32 [Vinpocetine, vinpocetine], the inhibition at 100 µM ([1]; 1×10^-4 M) is reported as 45%, the inhibition at 10 µM ([1]; 1×10^-5 M) is reported as 30% and the inhibition at 30 µM ([1]; 3×10^-5 M) is reported as 40%. The inhibition at 3 µM ([1]; 3×10^-6 M) was 10%, the “Aβ (1-42) production and secretion compared to the control group” value ([2]; 1×10^-5 M) was “showed a tendency to decrease” and the “Aβ (1-42) production and secretion compared to the control group” value ([2]; 3×10^-6 M) was “showed a tendency to decrease”. The “cytotoxicity (formazan formed from MTT)” value [3] was “only slight cytotoxicity”, the “cytotoxicity (LDH activity in the culture supernatant)” value [4] was “only slight cytotoxicity” and the “production or secretion of Aβ (1-40)” value [5] was “inhibited production or secretion of Aβ (1-40)”. For the same compound, the “cytotoxicity (MTT)” value [6] was “without any cytotoxicity” and the “toxic problems in use as a medicament” value [7] was “no toxic problems”.

For C[N+](C)(C)CCOC(N)=O [carbacol], the “secreted βAPP” value [8] is listed as “increase the secreted βAPP” and the “Aβ production or secretion” value [9] is listed as “inhibit Aβ production or secretion”.
